Laboratory results taken from paper PMC5913971, “A Novel Piperazine-Based Drug Lead for Cryptosporidiosis from the Medicines for Malaria Venture Open-Access Malaria Box” (Antimicrobial Agents and Chemotherapy, 2018).
pEC50: −log10 of the molar value. Converted amounts (≈) assume the structure as drawn.

Key:
HCT-8 cells = experiment: Host cell toxicity assay (CellTiter AQueous); format: cell-based, Human
Experimental: Host cell toxicity was measured as described previously ([20]). HCT-8 cells were grown to >95% confluence in 384-well plates. Increasing concentrations of compounds were added, and assay plates were incubated at 37°C under 5% CO2 for 48 h. The corner wells of each plate were trypsinized to remove cells and were used as blanks for measuring absorbance at 490 nm. Cell proliferation was measured using the CellTiter AQueous assay kit (Promega, USA) according to the manufacturer's instructions and was expressed as the percentage of proliferation with the vehicle control (DMSO). GraphPad Prism software, version 6.01, was used to plot graphs and calculate the concentration that inhibits 50% of host cell proliferation relative to that with the DMSO control (50% toxic concentration [TC50]). A selectivity index (SI) was calculated as the ratio of the […].

C. parvum Iowa isolate = experiment: Immunofluorescence assay for C. parvum growth inhibition in HCT-8 cells; format: cell-based, Cryptosporidium parvum; details: Cryptosporidium parvum, inside HCT-8 cells, 48 h incubation
Experimental: Inhibition of C. parvum growth was measured as described previously ([20]). Oocysts were excysted by treatment with 10 mM hydrochloric acid (10 min at 37°C), followed by exposure to 2 mM sodium taurocholate (Sigma-Aldrich) in PBS for 10 min at 16°C. Excysted oocysts were then added to >95% confluent HCT-8 cell monolayers in 384-well plates at a concentration of 5,500 Iowa isolate oocysts per well. For C. parvum field isolates, the inoculum required to yield an infection level similar to that produced by 5,500 Iowa isolate oocysts per well was determined and was used for subsequent assays of parasite inhibition. Compounds were added just before or 3 h after infection, and assay plates were incubated for 48 h postinfection at 37°C under 5% CO2. Wells were then washed three times with PBS containing 111 mM D-galactose, fixed with 4% paraformaldehyde in PBS for 15 min at room temperature, permeabilized with 0.25% Triton X-100 for 10 min at 37°C, washed three times with PBS with 0.1% Tween 20, and blocked with 4% bovine serum albumin (BSA) in PBS for 2 h at 37°C or 4°C overnight. Parasitophorous vacuoles were stained with 1.33 μg/ml of fluorescein-labeled Vicia villosa lectin (Vector Laboratories) diluted in 1% BSA in PBS with 0.1% Tween 20 for 1 h at 37°C, followed by the addition of Hoechst 33258 (AnaSpec) at a final concentration of 0.09 mM diluted in water for another 15 min at 37°C. Wells were then washed five times with PBS containing 0.1% Tween 20. A Nikon Eclipse TE2000 epifluorescence microscope with an automated stage was programmed using NIS-Elements Advanced Research software (Nikon, USA) to focus on the center of each well and take a 3-by-3 composite image using an EXi Blue fluorescence microscopy camera (QImaging, Canada) with a 20× objective (numerical aperture, 0.45). Nucleus and parasite images were exported separately as .tif files and were analyzed using macros developed on the ImageJ platform (National Institutes of Health) ([20]). The only modification from the published macro used to count parasites was that the lower size threshold for parasites was decreased from 16.5 to 4 pixels (1 pixel = 0.65 μm). Graphs were plotted, and half-maximal effective concentration (EC50) and 90% effective concentration (EC90) values were calculated using GraphPad Prism software, version 6.01. For every C. parvum field isolate experiment, a dose-response experiment against the C. parvum Iowa isolate was performed simultaneously as a reference.

zebrafish = system: zebrafish; set-up: method as in PMID 27467575; details: cited from earlier work
[1] = set-up: method as in PMID 27467575; details: pH 7.4; cited from earlier work

## O=C(Nc1ccc(Cl)cc1)N1CCN(c2ccc3nncn3n2)CC1 [MMV665917, Clc1ccc(NC(=O)N2CCN(CC2)c3ccc4nncn4n3)cc1]
HCT-8 cells; 48 h, CellTiter AQueous
  TC50, host HCT-8 cell toxicity: > 100 µM
HCT-8 cells; HCT-8 TC50 versus C. parvum EC50
  selectivity index (SI): > 47
HCT-8 cells; concentrations as high as 100 μM
  toxic effect on host HCT-8 cell proliferation: no toxic effect
C. parvum Iowa isolate; Fig. 1, read-out: EC50, anti-C. parvum dose response
  pEC50: 5.68
C. parvum Iowa isolate; Fig. 1B, read-out: EC90, anti-C. parvum dose response
  EC90: 5.1 µM
zebrafish
  toxicity to zebrafish: not toxic
[1]
  kinetic solubility: 18 µM (≈ 6.44 µg/mL)
